Experimental findings from ChEMBL document CHEMBL1136152, “Synthesis and antioxidant efficiency of a new amphiphilic spin-trap derived from PBN and lipoic acid” (Bioorg Med Chem Lett, 2003) are described below.

Type in all cases: functional
The nature of test [1]: In vitro half-hemolysis time at the concentration of 500 uM with LAMPBN to LGT molar ratio = 0.67/1.33.
The nature of test [2]: In vitro half-hemolysis time at the concentration of 100 uM with LAMPBN to LGT molar ratio = 1/1.
Test [3] in a line: In vitro half-hemolysis time at the concentration of 500 uM with LAMPBN to LGT molar ratio = 1.33/0.67.
A short description of test [4]: In vitro half-hemolysis time at the concentration of 200 uM with LAMPBN to LGT molar ratio = 0.67/1.33.
Test [5] can be described thus: In vitro half-hemolysis time at the concentration of 50 uM with LAMPBN to LGT molar ratio = 0.67/1.33.
Test [6] can be described thus: In vitro half-hemolysis time at the concentration of 200 uM with LAMPBN to LGT molar ratio = 1/1.
Test [7] in a line: In vitro half-hemolysis time at the concentration of 100 uM with LAMPBN to LGT molar ratio = 1.33/0.67.
A short description of test [8]: In vitro half-hemolysis time at the concentration of 200 uM with LAMPBN to LGT molar ratio = 1.33/0.67.
Test [9] is described as follows: In vitro half-hemolysis time at the concentration of 50 uM with LAMPBN to LGT molar ratio = 1.33/0.67.
Test [10] in a line: In vitro half-hemolysis time at the concentration of 100 uM with LAMPBN to LGT molar ratio = 0.67/1.33.
The nature of test [11]: In vitro half-hemolysis time at the concentration of 50 uM with LAMPBN to LGT molar ratio = 1/1.
Test [12] is described as follows: In vitro half-hemolysis time at the concentration of 500 uM with LAMPBN to LGT molar ratio = 1/1.
Test [13] can be described thus: In vitro half-hemolysis time at the concentration of 100 uM.
A short description of test [14]: In vitro half-hemolysis time at the concentration of 500 uM.
Test [15] can be described thus: In vitro half-hemolysis time at the concentration of 50 uM.
The nature of test [16]: In vitro half-hemolysis time at the concentration of 200 uM.

For the molecule `CC(C)(C)/[N+]([O-])=C/c1ccc(CNC(=O)[C@H](O)[C@@H](O)C(O[C@@H]2O[C@@H](CO)[C@H](O)[C@H](O)[C@@H]2O)[C@H](O)CO)cc1.O=C(CCCCC1CCSS1)NCC(=O)NC(CO)(CO)CO` (stereo partly specified), the HT50 in [1] stood at 88.6%; in [2] it was 51.6%; in test [3], 86.3%; in test [4], 62%; in [5], 56.6%; in test [6], 53.7%. In addition, the HT50 worked out at 47.4% in test [7]; 49.8% in test [8]; 41.5% in [9]; 60.8% in test [10]; 44.6% in test [11]; 86.5% in [12].

Consider `CC(C)(COC(=O)NCCCNC(=O)CCCCC1CCSS1)/[N+]([O-])=C/c1ccc(CNC(=O)[C@H](O)[C@@H](O)[C@H](O[C@@H]2O[C@@H](CO)[C@H](O)[C@H](O)[C@@H]2O)[C@H](O)CO)cc1` (stereo partly specified), for which the HT50 in test [13] was determined as 82.9%; in [14] it was 167%; in test [15] it was 49%; in [16] it was 135%.
